Measurements reported in patent US9980509B2, “Modification of bacterial profile of tobacco” (R.J. REYNOLDS TOBACCO COMPANY, priority 2013, dated 2018).

Assays:
[1] = test system: enteric bacteria (gram negative bacteria); test: Enteric bacteria counts (violet red bile agar) on field-treated tobacco leaf; assay type: in vivo; conditions: dark-air cured tobacco treated five hours prior to harvest; based on total bacteria counts before and after treatment
Description: (§1) Dark-air cured tobacco is treated five hours prior to harvest with one or more of a probiotic bacteria solution, and enzyme solution, and/or a 3% sodium chloride salt solution. The solution is applied using a backpack sprayer. Solutions are based on a 100 gallon solution per acre, using recommended plant spacings and dose per plant is provided below.
(§2) The treated tobacco is harvested and mid-stalk leaf samples are analyzed for total bacteria counts, enteric bacteria counts, and Lactobacillus counts. Ten grams of each treated tobacco sample is placed in Butterfields Phosphate Buffer and diluted 10^−2 to 10^−8 times with water. The treated tobacco sample dilutions are applied to plate count agar (PCA) for total aerobic bacteria counts, to violet red bile agar (VRBA) for gram negative bacteria counts, and to MRS for anaerobic (Lactobacillus) counts. The number of bacterial colonies, as visualized under magnification, are counted to estimate the total number of colony-forming units per gram, CFU/g.

Lactobacillus = Lactobacillus (anaerobic) counts on MRS from field-treated tobacco leaf; assay type: in vivo
Description: as §1, §2

total aerobic bacteria = test: Total bacteria counts (plate count agar) on field-treated tobacco leaf; assay type: in vivo; conditions: dark-air cured tobacco treated five hours prior to harvest; based on total bacteria counts before and after treatment
Description: as §1, §2

Dark tobacco plants = conditions: for NNN content relative to the level of quantification: potassium chloride-treated samples 1, 2, 3, 5, and 6; for NNN content relative to the level of quantification / NAT content relative to the level of quantification: all potassium sulfate-treated samples; for NAT content relative to the level of quantification: potassium chloride-treated samples 3, 5, and 6
Description: A first, 0.5 acre unplanted plot of soil was treated with a nitrogen-containing fertilizer comprising urea (N—P—K: 46-0-0) at a rate of 150 pounds per acre and a fertilizer incorporating diammonium phosphate and phosphorus (N—P—K: 18-46-0) at a rate of 180 pounds per acre by broadcast application. […] All fertilizer applications were incorporated into the soil after application.
A second, 0.5 acre unplanted plot of soil was treated with a nitrogen-containing fertilizer comprising urea (N—P—K: 46-0-0) at a rate of 150 pounds per acre and a fertilizer incorporating diammonium phosphate and phosphorus (N—P—K: 18-46-0) at a rate of 180 pounds per acre by broadcast application. The following day, a potassium chloride fertilizer (N—P—K: 0-0-60) was broadcast applied at 180 pounds per acre. All fertilizer applications were incorporated into the soil after application.
Dark tobacco plants were independently grown and were transplanted as seedlings (approximately 6-10 inches in length) to both plots (with 2450 plants per fertilized plot) four days after application of the potassium sources to the soil. […] The tobacco plants from both plots were harvested about three months after UAN treatment, and the harvested plants were moved to a traditional 1-acre air-curing barn. The plants were cured in the barn for about a month and a half.
After curing the plants, the leaves were removed from the stalks. The fourth leaf from the upper stalk position of six plants from each plot was taken for analysis. Each of these twelve leaves was prepared by removing the mid-rib stem from the leaf lamina.
The lamina was milled and the content of certain components was evaluated by liquid chromatography-mass spectrometry (LCMS). In particular, the leaves were analyzed in triplicate for TSNA content (namely, NNN, NNK, NAT, and NAB content).

SMILES | enteric bacteria reduction after treatment [1] [%] | Lactobacillus increase after treatment (Lactobacillus; dark-air cured tobacco treated five hours prior to harvest, based on total bacteria counts before and after treatment) | Lactobacillus bacteria change after treatment (Lactobacillus; treated tobacco material, Example 1) | total bacteria reduction after treatment (total aerobic bacteria) [%] | NAT content compared with potassium sulfate treatment (Dark tobacco plants; all cured leaf samples tested) | NNN content compared with potassium sulfate treatment (Dark tobacco plants; all cured leaf samples tested) | average decrease NAT with respect to the potassium sulfate-treated samples (Dark tobacco plants; cured leaf samples) | average decrease NNN with respect to the potassium sulfate-treated samples (Dark tobacco plants; cured leaf samples) | TSNA levels, particularly NNN and NNK, compared with leaves from potassium sulfate-treated soil (Dark tobacco plants; cured leaves) | NNN content relative to the level of quantification (Dark tobacco plants) | NAT content relative to the level of quantification (Dark tobacco plants)
[Cl-].[Na+] [3% NaCl solution, sodium chloride] | 76 | greater than 400% | significant increase | 94 |  |  |  |  |  |  | 
[Cl-].[K+] [Potassium Chloride, potassium chloride] |  |  |  |  | significant decreases | significant decreases | about 77% | about 69% | significantly lower | below the level of quantification | below the level of quantification
O=S(=O)([O-])[O-].[K+].[K+] [Potassium Sulfate, potassium sulfate, reference compound] |  |  |  |  |  |  |  |  |  | well above such levels | well above such levels
